According to patent US20110003753A1, “COMPOSITIONS AND METHODS FOR DISRUPTING THE FUNCTION OF THE TRANSCRIPTIONAL REPRESSOR COMPONENT Sin3A-PAH2 DOMAIN TO INDUCE DIFFERENTIATION AND GROWTH INHIBITION IN BREAST CANCER” (SAMUEL WAXMAN CANCER RESEARCH FOUNDATION, priority 2009, published 2011):

Assays:
MDA-MB-231 cells = experiment: Three-dimensional morphogenesis assay in Matrigel; assay type: cell-based, human; details: 5 μM peptide, Matrigel 3D culture
Protocol: FIG. 3: A. Morphogenesis in 3D cultures in Matrigel. MDA-MB-231 and MMTV-Myc cells expressing SID or the double mutant were cultured in 3D-Matrigel for 14 days. […] B. Reversion of the invasive phenotype of the MDA-MB-231 cells in Matrigel 3D cultures. Upper panel indicates change in numbers of invasive versus non invasive colonies (as indicated in crosshatched and non-crosshatched bars, respectively) in the presence of different concentrations (as indicated) of cell penetrating SID or SID^SCR (scrambled control) peptide. The colonies were counted after 10 days of treatment with a medium containing fresh peptide changed every 24 hours. […] The reduction in invasive phenotype was quantified by counting 5 low magnification fields per well done in triplicates (upper panel). The p value was calculated using the unpaired Student t test.
3D cultures of MDA-MB-231 and MMTV-Myc cells stably transfected with pEGFP-SID, pEGFP-SID2Mut or the parent vector pEGFP-N3 were prepared as described by Debnath et al. (Debnath et al2003). Briefly, […] of growth factor depleted Matrigel (BD Biosciences) was applied on 8-well multichamber slides (BD Biosciences) and incubated at 37° C. for 30 minutes. Once the Matrigel solidified 5×10^3 cells were seeded on top of the gels in assay medium containing 2% Matrigel and 20 ng/ml […]. Growth medium was changed daily for 14 days. Once colony formation was evident, the SID or the scramble control peptide was added to the MDA-MB-231 parental cells in the medium starting at day 3. The morphology of the colonies was determined by confocal microscopy. Induction of apoptosis was determined by staining colonies with activated caspase-3 antibody (BD Transduction Labs) and cell polarization by staining with anti-GM130 antibody (BD Transduction Labs). Cell nuclei were visualized by DAPI (Sigma) staining. […]

[1] = molecular target: T1, PAH2 domain of Sin3A and MAD (Mus musculus, UniProt Q60520); experiment: GST pull-down of MAD by the Sin3A PAH2 domain; assay type: binding
T1 construct: amino acids 306-450 of mSin3A; made in house; host or cells: E. coli (GST-PAH2); MAD from rabbit reticulocyte in vitro translation or immunoprecipitated from MDA-MB-231 lysate
T1 sequence (Q60520 306-450): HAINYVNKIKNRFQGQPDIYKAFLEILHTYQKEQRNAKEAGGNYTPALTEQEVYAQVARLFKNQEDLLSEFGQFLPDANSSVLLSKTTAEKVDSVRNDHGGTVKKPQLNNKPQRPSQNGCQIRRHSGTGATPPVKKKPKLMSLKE
Excerpt: FIG. 2: SID decoy peptide blocks interactions between Sin3 PAH2 and MAD and interferes with recruitment of members of the Sin3 co-repressor complex. A. GST pull-down of MAD by the Sin3A PAH2 domain is blocked by SID peptide. Sin3A PAH2 domain (amino acids 306-450) was expressed in E. coli as a GST fusion and used in a pull down assay for in vitro interaction with 35S-methionine labeled MAD (left panel) or MAD immunoprecipitated from MDA-MB-231 cell lysates (right panel). 25% of input is shown for in vitro translated MAD and 10% of input for immunoprecipitated MAD (input). Assays were performed using 15 μM Tat-SID or Tat-SID^SCR peptide unless otherwise indicated. […]
GST pull-down assays were performed using the ProFound™ pull-down GST protein:protein interaction kit (Pierce) according to the manufacturer's instructions. […] Gels containing samples from MDA-MB-231 cell lysates were analyzed by Western immunoblot according to standard protocols. Pulled-down MAD was detected using mouse monoclonal anti-MAD (F-1) antibody (Santa Cruz), anti-mouse secondary antibody (Jackson ImmunoResearch), and enhanced chemiluminescence (ECL, Peirce).

Sequence: YGRKKRRQGGGVRMNIQMLLEAADYLERRER [SID peptide]
- number and size of the colonies (MDA-MB-231 cells): reduced
- decrease in number of colonies with invasive phenotype (MDA-MB-231 cells; colonies counted after 10 days of treatment): ~80%
- blocking of interaction between PAH2 domain of Sin3A and in vitro translated MAD ([1]; 35S-methionine labeled MAD, 15 μM peptide unless otherwise indicated): blocked interactions
- blocking of interaction between PAH2 domain of Sin3A and MAD immunoprecipitated from MDA-MB-231 cells ([1]; MAD immunoprecipitated from MDA-MB-231 cell lysates, 15 μM peptide): blocked interactions
